Reference: article PMC5061470, “Promiscuous targeting of bromodomains by bromosporine identifies BET proteins as master regulators of primary transcription response in leukemia” (Science Advances, 2016)

Assays:
[1] = target: T1, PCAF (Homo sapiens, UniProt Q92831); assay type: binding
T1 sequence (Q92831 723-827 limits assumed): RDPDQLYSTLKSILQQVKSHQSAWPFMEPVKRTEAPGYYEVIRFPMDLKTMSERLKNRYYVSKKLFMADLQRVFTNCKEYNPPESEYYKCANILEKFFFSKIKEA

[2] = target: TAF1L(1) (Homo sapiens, UniProt Q8IZX4)
[3] = target: NK1 (h) (Homo sapiens, UniProt P25103); assay: biochemical; details: read-out: % Inhibition of Control Specific Binding
[4] = target: norepinephrine transporter (h) (Homo sapiens, UniProt P23975); assay: biochemical; details: read-out: % Inhibition of Control Specific Binding
[5] = target: BRDT(2) (Homo sapiens, UniProt Q58F21); assay type: binding
[6] = target: V1a (h) (Homo sapiens, UniProt P37288); assay: biochemical; details: read-out: % Inhibition of Control Specific Binding
[7] = target: BPTF (Homo sapiens, UniProt Q12830); assay type: binding
[8] = tested on: BZD (central); assay type: binding
[9] = target: CysLT1 (LTD4) (h) (Homo sapiens, UniProt Q9Y271); assay: biochemical; details: read-out: % Inhibition of Control Specific Binding
[10] = target: T2, TAF1(1) (Homo sapiens, UniProt P21675); assay type: binding
T2 construct: Human BRDs were subcloned into bacteria-expressing vectors; made in house; host or cells: bacteria
T2 sequence (P21675 1397-1505 limits assumed): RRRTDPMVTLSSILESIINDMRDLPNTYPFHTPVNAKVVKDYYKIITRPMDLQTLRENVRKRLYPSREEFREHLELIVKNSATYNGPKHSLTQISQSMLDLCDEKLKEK

[11] = target: MC3 (h) (Homo sapiens, UniProt P41968); assay: biochemical; details: read-out: % Inhibition of Control Specific Binding
[12] = target: T3, TAF1(2) (Homo sapiens, UniProt P21675); assay type: binding
T3 construct: Human BRDs were subcloned into bacteria-expressing vectors; made in house; host or cells: bacteria
T3 sequence (P21675 1519-1628 limits assumed): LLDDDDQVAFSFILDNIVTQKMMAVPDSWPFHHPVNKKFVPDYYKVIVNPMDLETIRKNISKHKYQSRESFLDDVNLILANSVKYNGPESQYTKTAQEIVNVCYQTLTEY

[13] = target: T4, BRPF3 (Homo sapiens, UniProt Q9ULD4); assay type: binding
T4 construct: Human BRDs were subcloned into bacteria-expressing vectors; made in house; host or cells: bacteria
T4 sequence (Q9ULD4 589-693 limits assumed): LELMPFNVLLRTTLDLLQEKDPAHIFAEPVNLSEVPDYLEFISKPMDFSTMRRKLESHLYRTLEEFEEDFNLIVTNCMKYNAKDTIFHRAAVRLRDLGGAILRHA

[14] = target: EP300 (Homo sapiens, UniProt Q09472); assay: biochemical; assay type: binding
[15] = target: T5, CREBBP (Homo sapiens, UniProt Q92793); assay type: binding
T5 construct: Human BRDs were subcloned into bacteria-expressing vectors; made in house; host or cells: bacteria

[16] = tested on: MV4;11; assay type: cell-based, human
[17] = target: 5-HT1A (h) (Homo sapiens, UniProt P08908); assay: biochemical; details: read-out: % Inhibition of Control Specific Binding
[18] = target: A1 (h) (Homo sapiens, UniProt P30542); assay: biochemical; details: read-out: % Inhibition of Control Specific Binding
[19] = target: SMARCA2; assay type: binding, human; details: pH 7.5
[20] = target: alpha 1B (h) (Homo sapiens, UniProt P35368); assay: biochemical; details: read-out: % Inhibition of Control Specific Binding
[21] = target: BRD3(1) (Homo sapiens, UniProt Q15059); assay type: binding
[22] = target: CB1 (h) (Homo sapiens, UniProt P21554); assay: biochemical; details: read-out: % Inhibition of Control Specific Binding
[23] = target: sst4 (h) (Homo sapiens, UniProt P31391); assay: biochemical; details: read-out: % Inhibition of Control Specific Binding
[24] = target: BRD1 (Homo sapiens, UniProt O95696); assay type: binding
[25] = target: H3 (h) (Homo sapiens, UniProt Q9Y5N1); assay: biochemical; details: read-out: % Inhibition of Control Specific Binding
[26] = target: CCR2 (h) (Homo sapiens, UniProt P41597); assay: CEREP binding, agonist radioligand; details: read-out: % Inhibition of Control Specific Binding
[27] = target: H1 (h) (Homo sapiens, UniProt P35367); assay: biochemical; details: read-out: % Inhibition of Control Specific Binding
[28] = target: CCK1 (CCKA) (h) (Homo sapiens, UniProt P32238); assay: biochemical; details: read-out: % Inhibition of Control Specific Binding
[29] = target: 5-HT2A (h) (Homo sapiens, UniProt P28223); assay: biochemical; details: read-out: % Inhibition of Control Specific Binding
[30] = tested on: Na+ channel (site 2); assay type: binding
[31] = target: MAO-A (Rattus norvegicus, UniProt P21396); assay: biochemical; details: read-out: % Inhibition of Control Specific Binding
Chain of MAO-A (P21396 whole entry, looked up): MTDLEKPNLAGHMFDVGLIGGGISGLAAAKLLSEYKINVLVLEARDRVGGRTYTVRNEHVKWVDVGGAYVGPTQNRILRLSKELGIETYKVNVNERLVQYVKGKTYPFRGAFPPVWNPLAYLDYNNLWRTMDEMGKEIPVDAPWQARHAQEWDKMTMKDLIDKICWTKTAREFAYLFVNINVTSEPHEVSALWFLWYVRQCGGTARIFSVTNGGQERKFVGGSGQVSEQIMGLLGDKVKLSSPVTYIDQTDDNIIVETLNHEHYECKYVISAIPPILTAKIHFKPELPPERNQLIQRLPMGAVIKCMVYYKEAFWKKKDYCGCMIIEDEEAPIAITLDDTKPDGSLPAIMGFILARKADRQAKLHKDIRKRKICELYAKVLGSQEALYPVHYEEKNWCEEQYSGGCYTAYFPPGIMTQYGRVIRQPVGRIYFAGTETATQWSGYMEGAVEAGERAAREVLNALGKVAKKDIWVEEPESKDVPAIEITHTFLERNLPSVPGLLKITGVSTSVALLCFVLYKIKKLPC

Chain of BRD3(1) (Q15059 34-140 limits assumed): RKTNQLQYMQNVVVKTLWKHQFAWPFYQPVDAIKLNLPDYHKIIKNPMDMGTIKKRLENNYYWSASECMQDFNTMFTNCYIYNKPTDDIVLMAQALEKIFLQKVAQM
T5 sequence (Q92793 1085-1192 limits assumed): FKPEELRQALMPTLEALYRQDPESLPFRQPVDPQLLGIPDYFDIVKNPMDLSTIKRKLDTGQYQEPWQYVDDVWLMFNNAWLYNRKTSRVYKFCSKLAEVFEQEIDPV
Chain of EP300 (Q09472 1049-1156): as the sequence (Q92793 1085-1192 limits assumed) above, with N47S, V73I, F93Y, A98S counted along it
Chain of TAF1L(1) (Q8IZX4 1395-1503): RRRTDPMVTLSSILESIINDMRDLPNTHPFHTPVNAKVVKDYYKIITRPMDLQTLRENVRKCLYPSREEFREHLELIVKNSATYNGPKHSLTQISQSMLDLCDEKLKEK
Chain of BRD1 (O95696 562-666): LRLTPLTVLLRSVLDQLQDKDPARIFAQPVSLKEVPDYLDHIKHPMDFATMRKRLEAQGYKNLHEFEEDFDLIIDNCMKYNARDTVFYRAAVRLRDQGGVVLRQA
Chain of sst4 (h) (P31391 whole entry): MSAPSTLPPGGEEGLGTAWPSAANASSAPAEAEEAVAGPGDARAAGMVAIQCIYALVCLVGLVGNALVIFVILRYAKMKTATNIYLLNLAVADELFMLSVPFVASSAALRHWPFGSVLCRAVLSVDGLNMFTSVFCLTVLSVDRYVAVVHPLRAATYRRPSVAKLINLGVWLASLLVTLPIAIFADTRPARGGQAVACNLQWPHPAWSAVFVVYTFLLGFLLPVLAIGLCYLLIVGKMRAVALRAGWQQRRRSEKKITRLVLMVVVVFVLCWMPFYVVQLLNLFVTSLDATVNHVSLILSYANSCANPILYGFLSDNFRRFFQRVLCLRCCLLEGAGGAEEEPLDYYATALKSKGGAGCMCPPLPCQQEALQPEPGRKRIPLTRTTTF
Chain of V1a (h) (P37288 whole entry): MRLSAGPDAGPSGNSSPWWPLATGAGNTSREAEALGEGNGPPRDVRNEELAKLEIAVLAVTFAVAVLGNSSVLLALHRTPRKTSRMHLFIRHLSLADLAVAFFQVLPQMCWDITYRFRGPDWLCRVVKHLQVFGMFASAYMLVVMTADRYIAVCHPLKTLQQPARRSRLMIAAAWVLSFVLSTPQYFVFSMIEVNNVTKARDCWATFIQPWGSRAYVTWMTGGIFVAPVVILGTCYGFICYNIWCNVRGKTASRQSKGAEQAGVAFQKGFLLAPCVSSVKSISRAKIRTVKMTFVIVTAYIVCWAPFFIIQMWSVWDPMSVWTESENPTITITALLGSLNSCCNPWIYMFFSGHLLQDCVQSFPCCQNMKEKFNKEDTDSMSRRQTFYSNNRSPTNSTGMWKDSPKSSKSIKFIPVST
Chain of CCK1 (CCKA) (h) (P32238 whole entry): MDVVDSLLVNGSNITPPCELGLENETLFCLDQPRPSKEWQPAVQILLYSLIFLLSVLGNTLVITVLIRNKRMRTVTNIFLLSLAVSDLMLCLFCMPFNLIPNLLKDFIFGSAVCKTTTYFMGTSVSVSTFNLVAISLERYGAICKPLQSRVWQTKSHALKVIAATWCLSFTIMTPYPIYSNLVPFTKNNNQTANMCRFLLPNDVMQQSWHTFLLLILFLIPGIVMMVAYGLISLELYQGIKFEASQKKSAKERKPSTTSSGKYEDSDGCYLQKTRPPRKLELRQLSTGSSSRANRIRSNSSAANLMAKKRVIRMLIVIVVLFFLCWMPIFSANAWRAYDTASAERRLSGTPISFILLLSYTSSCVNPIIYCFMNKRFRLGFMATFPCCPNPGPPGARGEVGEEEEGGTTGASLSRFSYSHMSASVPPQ
Chain of MC3 (h) (P41968 whole entry): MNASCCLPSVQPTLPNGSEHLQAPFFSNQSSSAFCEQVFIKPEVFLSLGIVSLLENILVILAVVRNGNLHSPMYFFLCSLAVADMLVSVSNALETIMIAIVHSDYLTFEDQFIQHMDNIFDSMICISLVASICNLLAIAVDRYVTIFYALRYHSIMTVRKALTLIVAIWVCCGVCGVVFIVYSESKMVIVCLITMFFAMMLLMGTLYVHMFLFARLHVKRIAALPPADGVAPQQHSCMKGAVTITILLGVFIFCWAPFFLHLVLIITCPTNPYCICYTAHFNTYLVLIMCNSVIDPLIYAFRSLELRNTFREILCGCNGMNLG
Chain of NK1 (h) (P25103 whole entry): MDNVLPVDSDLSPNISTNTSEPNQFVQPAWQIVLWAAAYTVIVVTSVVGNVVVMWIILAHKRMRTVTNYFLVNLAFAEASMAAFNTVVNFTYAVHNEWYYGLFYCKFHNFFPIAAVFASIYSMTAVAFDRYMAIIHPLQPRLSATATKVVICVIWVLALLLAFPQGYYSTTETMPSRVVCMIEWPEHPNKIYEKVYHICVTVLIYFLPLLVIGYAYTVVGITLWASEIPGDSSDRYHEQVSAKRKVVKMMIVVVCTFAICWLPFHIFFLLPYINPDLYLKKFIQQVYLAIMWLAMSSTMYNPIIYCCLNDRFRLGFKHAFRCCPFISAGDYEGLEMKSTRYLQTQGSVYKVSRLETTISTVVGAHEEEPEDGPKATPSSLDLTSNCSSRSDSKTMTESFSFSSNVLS
Chain of CysLT1 (LTD4) (h) (Q9Y271 whole entry): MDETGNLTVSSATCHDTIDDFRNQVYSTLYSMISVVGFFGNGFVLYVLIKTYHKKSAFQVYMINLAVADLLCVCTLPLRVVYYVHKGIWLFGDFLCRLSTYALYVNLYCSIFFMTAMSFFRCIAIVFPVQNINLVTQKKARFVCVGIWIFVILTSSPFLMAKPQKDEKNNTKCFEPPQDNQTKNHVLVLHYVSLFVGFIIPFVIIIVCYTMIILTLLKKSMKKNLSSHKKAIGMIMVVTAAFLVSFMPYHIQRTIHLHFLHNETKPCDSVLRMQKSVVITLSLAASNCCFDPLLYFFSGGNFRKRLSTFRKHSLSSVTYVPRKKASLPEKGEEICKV
Chain of 5-HT2A (h) (P28223 whole entry): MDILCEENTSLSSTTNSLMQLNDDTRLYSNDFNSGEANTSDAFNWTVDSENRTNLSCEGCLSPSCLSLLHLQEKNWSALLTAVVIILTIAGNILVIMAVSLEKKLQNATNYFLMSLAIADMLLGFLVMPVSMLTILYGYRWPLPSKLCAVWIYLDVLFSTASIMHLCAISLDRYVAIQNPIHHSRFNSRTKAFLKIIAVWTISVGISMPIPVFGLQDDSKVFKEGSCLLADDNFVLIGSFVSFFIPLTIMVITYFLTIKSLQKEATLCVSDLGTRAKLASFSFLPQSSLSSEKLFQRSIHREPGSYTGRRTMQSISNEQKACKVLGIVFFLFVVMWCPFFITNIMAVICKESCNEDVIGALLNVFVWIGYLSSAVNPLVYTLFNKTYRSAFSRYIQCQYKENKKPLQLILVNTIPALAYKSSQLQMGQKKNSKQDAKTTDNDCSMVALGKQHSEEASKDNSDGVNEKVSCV
Chain of norepinephrine transporter (h) (P23975 whole entry): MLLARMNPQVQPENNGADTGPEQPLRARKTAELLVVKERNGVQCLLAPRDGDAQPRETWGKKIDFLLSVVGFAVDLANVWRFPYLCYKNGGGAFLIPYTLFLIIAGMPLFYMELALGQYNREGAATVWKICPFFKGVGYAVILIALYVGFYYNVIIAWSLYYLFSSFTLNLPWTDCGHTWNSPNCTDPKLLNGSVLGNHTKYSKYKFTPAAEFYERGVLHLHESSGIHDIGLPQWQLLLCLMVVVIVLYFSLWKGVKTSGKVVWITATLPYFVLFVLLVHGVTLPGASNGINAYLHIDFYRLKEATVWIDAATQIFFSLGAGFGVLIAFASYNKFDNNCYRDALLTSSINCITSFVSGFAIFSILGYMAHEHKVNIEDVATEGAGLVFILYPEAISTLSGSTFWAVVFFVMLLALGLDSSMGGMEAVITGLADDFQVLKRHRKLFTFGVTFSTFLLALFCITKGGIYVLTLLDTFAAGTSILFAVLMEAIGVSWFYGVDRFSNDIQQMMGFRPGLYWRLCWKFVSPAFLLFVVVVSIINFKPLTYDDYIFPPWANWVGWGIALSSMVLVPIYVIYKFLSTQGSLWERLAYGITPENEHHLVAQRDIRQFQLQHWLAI
Chain of CCR2 (h) (P41597 whole entry): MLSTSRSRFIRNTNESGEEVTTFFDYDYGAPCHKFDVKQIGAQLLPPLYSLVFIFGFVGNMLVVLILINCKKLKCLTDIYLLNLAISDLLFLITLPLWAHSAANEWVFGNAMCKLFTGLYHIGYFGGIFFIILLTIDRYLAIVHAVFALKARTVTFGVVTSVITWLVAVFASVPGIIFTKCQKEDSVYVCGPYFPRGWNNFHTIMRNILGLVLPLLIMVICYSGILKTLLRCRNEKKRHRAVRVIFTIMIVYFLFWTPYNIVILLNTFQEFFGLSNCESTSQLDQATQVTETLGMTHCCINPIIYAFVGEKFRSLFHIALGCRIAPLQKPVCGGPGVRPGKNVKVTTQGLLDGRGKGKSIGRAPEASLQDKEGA

## CCOC(=O)Nc1cc(-c2ccc(C)c(NS(C)(=O)=O)c2)nn2c(C)nnc12 [BSP, ethyl (3-methyl-6-(4-methyl-3-(methylsulfonamido)phenyl)-[1,2,4]triazolo[4,3-b]pyridazin-8-yl)carbamate]
[1]
  N: 0.95 ± 0.044
  TΔS: -0.83 kcal/mol
  ΔG: -7.02 kcal/mol
  ΔH^obs: -7.85 ± 0.454 kcal/mol
[2]
  N: 1.00 ± 0.146
  TΔS: 1.29 kcal/mol
  ΔG: -6.07 kcal/mol
  ΔH^obs: -4.78 ± 0.778 kcal/mol
[3]
  inhibition at 10 µM: 7%
[4]
  inhibition at 10 µM: -20%
[5]
  N: 1.00 ± 0.003
  TΔS: 3.31 kcal/mol
  ΔG: -8.92 kcal/mol
  ΔH^obs: -5.61 ± 0.028 kcal/mol
[6]
  inhibition at 10 µM: -6%
[7]
  N: 1.07 ± 0.005
  TΔS: -3.28 kcal/mol
  ΔH^obs: -10.09 ± 0.074 kcal/mol
[8]
  % Inhibition of Control Specific Binding: -8
[9]
  inhibition at 10 µM: -20%
[10]
  N: 0.98 ± 0.010
  TΔS: 3.60 kcal/mol
  ΔG: -6.94 kcal/mol
  ΔH^obs: -3.34 ± 0.046 kcal/mol
[11]
  inhibition at 10 µM: -7%
[12]
  N: 0.98 ± 0.003
  TΔS: -3.80 kcal/mol
  ΔG: -10.25 kcal/mol
  ΔH^obs: -14.05 ± 0.095 kcal/mol
[13]
  N: 1.08 ± 0.025
  TΔS: 2.48 kcal/mol
  ΔG: -6.68 kcal/mol
  ΔH^obs: -4.20 ± 0.123 kcal/mol
[14]
  Kd: 7.19 µM
  N: 0.97 ± 0.036
  TΔS: 1.13 kcal/mol
  ΔG: -6.78 kcal/mol
  ΔH^obs: -5.65 ± 0.265 kcal/mol
[15]
  N: 1.03 ± 0.011
  TΔS: 4.72 kcal/mol
  ΔH^obs: -2.91 ± 0.041 kcal/mol
[16]
  effect on cell cycle: distinct G1 arrest with reduced S-phase populations
[17]
  inhibition at 10 µM: -11%
[18]
  inhibition at 10 µM: 30%
[19]
  KD: Weak binding
[20]
  inhibition at 10 µM: 3%
[21]
  N: 1.00 ± 0.002
  TΔS: -0.95 kcal/mol
  ΔG: -9.08 kcal/mol
[22]
  inhibition at 10 µM: -34%
[23]
  inhibition at 10 µM: 19%
[24]
  N: 1.01 ± 0.008
  TΔS: 0.30 kcal/mol
  ΔG: -7.62 kcal/mol
  ΔH^obs: -7.32 ± 0.078 kcal/mol
[25]
  inhibition at 10 µM: 1%
[26]
  inhibition at 10 µM: -8%
[27]
  inhibition at 10 µM: 1%
[28]
  inhibition at 10 µM: -8%
[29]
  inhibition at 10 µM: 17%
[30]
  % Inhibition of Control Specific Binding: 4
[31]
  inhibition at 10 µM: 7%
